Columns and labels:
Assay type in all cases: ADME, organism-based
[1] = Drug metabolism in human slow inactivators assessed as excretion of isonicotinic acid in urine at 1 g, iv by colorimetry; conditions: in vivo
[2] = Drug metabolism in human slow inactivators assessed as excretion of isonicotinuric acid in urine at 1 g, iv by colorimetry; conditions: in vivo
[3] = Drug excretion in human subject slow inactivator assessed as sum of isoniazid plus hydrazones, acetylisoniazid, isonicotinic acid and isonicotinuric acid level in urine at 681 mg, iv infused at constant rate 5.4 min measured 150 mins after start of drug injection by colorimetry; conditions: in vivo, 2.5 h
[4] = Drug excretion in human subject slow inactivator assessed as sum of isoniazid plus hydrazones, acetylisoniazid, isonicotinic acid and isonicotinuric acid level in urine at 681 mg, iv infused at constant rate 5.4 min measured 208.7 mins after start of drug injection by colorimetry; conditions: in vivo, 3.47833 h
[5] = Drug excretion in human subject slow inactivator assessed as sum of isoniazid plus hydrazones, acetylisoniazid, isonicotinic acid and isonicotinuric acid level in urine at 681 mg, iv infused at constant rate 5.4 min measured 396 mins after start of drug injection by colorimetry; conditions: in vivo, 6.6 h
[6] = Drug excretion in human subject slow inactivator assessed as sum of isoniazid plus hydrazones, acetylisoniazid, isonicotinic acid and isonicotinuric acid level in urine at 681 mg, iv infused at constant rate 5.4 min measured 496 mins after start of drug injection by colorimetry; conditions: in vivo
[7] = Drug excretion in human subject slow inactivator assessed as sum of isoniazid plus hydrazones, acetylisoniazid, isonicotinic acid and isonicotinuric acid level in urine at 681 mg, iv infused at constant rate 5.4 min measured 710 mins after start of drug injection by colorimetry; conditions: in vivo
[8] = Drug excretion in human subject slow inactivator assessed as sum of isoniazid plus hydrazones, acetylisoniazid, isonicotinic acid and isonicotinuric acid level in urine at 681 mg, iv infused at constant rate 5.4 min measured 747 mins after start of drug injection by colorimetry; conditions: in vivo, 12.45 h
[9] = Drug excretion in human subject slow inactivator assessed as total isonicotinoyl compound level in urine at 681 mg, iv infused at constant rate 5.4 min measured 181 mins after start of drug injection by colorimetry; conditions: in vivo
[10] = Drug excretion in human subject slow inactivator assessed as total isonicotinoyl compound level in urine at 681 mg, iv infused at constant rate 5.4 min measured 208.7 mins after start of drug injection by colorimetry; conditions: in vivo, 3.47833 h
[11] = Drug excretion in human subject slow inactivator assessed as total isonicotinoyl compound level in urine at 681 mg, iv infused at constant rate 5.4 min measured 276.3 mins after start of drug injection by colorimetry; conditions: in vivo, 4.605 h
[12] = Drug excretion in human subject slow inactivator assessed as total isonicotinoyl compound level in urine at 681 mg, iv infused at constant rate 5.4 min measured 305 mins after start of drug injection by colorimetry; conditions: in vivo
[13] = Drug excretion in human subject slow inactivator assessed as total isonicotinoyl compound level in urine at 681 mg, iv infused at constant rate 5.4 min measured 524 mins after start of drug injection by colorimetry; conditions: in vivo
[14] = Drug excretion in human subject slow inactivator assessed as total isonicotinoyl compound level in urine at 681 mg, iv infused at constant rate 5.4 min measured 613 mins after start of drug injection by colorimetry; conditions: in vivo
[15] = Drug excretion in human rapid inactivators urine assessed as isonicotinuric acid level at 1 g, iv by colorimetry; conditions: in vivo
[16] = Drug excretion in human slow inactivators urine assessed as total isonicotinoyl compounds at 1 g, iv by colorimetry; conditions: in vivo
[17] = Drug excretion in human rapid inactivators urine at 1 g, iv by colorimetry; conditions: in vivo
[18] = Drug metabolism in human rapid inactivators assessed as excretion of pyruvic acid isonicotinoylhydrazone in urine at 1 g, iv by colorimetry; conditions: in vivo
[19] = Drug metabolism in human rapid inactivators assessed as excretion of isonicotinic acid in urine at 1 g, iv by colorimetry; conditions: in vivo
[20] = Drug metabolism in human rapid inactivators assessed as excretion of isonicotinuric acid in urine at 1 g, iv by colorimetry; conditions: in vivo
[21] = Drug excretion in human subject slow inactivator assessed as total isonicotinoyl compound level in urine at 681 mg, iv infused at constant rate 5.4 min measured 648 mins after start of drug injection by colorimetry; conditions: in vivo, 10.8 h
[22] = Drug excretion in human subject slow inactivator assessed as total isonicotinoyl compound level in urine at 681 mg, iv infused at constant rate 5.4 min measured 747 mins after start of drug injection by colorimetry; conditions: in vivo, 12.45 h
[23] = Drug excretion in human subject rapid inactivator assessed as sum of isoniazid plus hydrazones, acetylisoniazid, isonicotinic acid and isonicotinuric acid level in urine at 670 mg, iv infused at constant rate 5.2min measured 32 mins after start of drug injection by colorimetry; conditions: in vivo
[24] = Drug excretion in human subject rapid inactivator assessed as sum of isoniazid plus hydrazones, acetylisoniazid, isonicotinic acid and isonicotinuric acid level in urine at 670 mg, iv infused at constant rate 5.2min measured 158 mins after start of drug injection by colorimetry; conditions: in vivo
[25] = Drug excretion in human subject rapid inactivator assessed as sum of isoniazid plus hydrazones, acetylisoniazid, isonicotinic acid and isonicotinuric acid level in urine at 670 mg, iv infused at constant rate 5.2min measured 296 mins after start of drug injection by colorimetry; conditions: in vivo
[26] = Drug excretion in human subject rapid inactivator assessed as sum of isoniazid plus hydrazones, acetylisoniazid, isonicotinic acid and isonicotinuric acid level in urine at 670 mg, iv infused at constant rate 5.2min measured 373 mins after start of drug injection by colorimetry; conditions: in vivo
[27] = Drug excretion in human subject rapid inactivator assessed as sum of isoniazid plus hydrazones, acetylisoniazid, isonicotinic acid and isonicotinuric acid level in urine at 670 mg, iv infused at constant rate 5.2min measured 486 mins after start of drug injection by colorimetry; conditions: in vivo, 8.1 h
[28] = Drug excretion in human subject rapid inactivator assessed as total isonicotinoyl compound level in urine at 670 mg, iv infused at constant rate 5.2min measured 32 mins after start of drug injection by colorimetry; conditions: in vivo
[29] = Drug excretion in human subject rapid inactivator assessed as total isonicotinoyl compound level in urine at 670 mg, iv infused at constant rate 5.2min measured 62 mins after start of drug injection by colorimetry; conditions: in vivo
[30] = Drug excretion in human subject rapid inactivator assessed as total isonicotinoyl compound level in urine at 670 mg, iv infused at constant rate 5.2min measured 126 mins after start of drug injection by colorimetry; conditions: in vivo, 2.1 h
[31] = Drug excretion in human subject rapid inactivator assessed as total isonicotinoyl compound level in urine at 670 mg, iv infused at constant rate 5.2min measured 335 mins after start of drug injection by colorimetry; conditions: in vivo
[32] = Drug excretion in human subject rapid inactivator assessed as total isonicotinoyl compound level in urine at 670 mg, iv infused at constant rate 5.2min measured 373 mins after start of drug injection by colorimetry; conditions: in vivo
[33] = Drug excretion in human subject rapid inactivator assessed as total isonicotinoyl compound level in urine at 670 mg, iv infused at constant rate 5.2min measured 426 mins after start of drug injection by colorimetry; conditions: in vivo, 7.1 h

For `NNC(=O)c1ccncc1` [ISONIAZID], the Drug metabolism [1] was 18.1 %molar, the Drug metabolism [2] was 14.2 %molar and the Drug excretion [3] was 38.71 mg. The Drug excretion [4] was 28.41 mg, the Drug excretion [5] was 17.18 mg and the Drug excretion [6] was 14.26 mg. The Drug excretion [7] was 10.68 mg, the Drug excretion [8] was 10.074 mg and the Drug excretion [9] was 33.6 mg. For the same compound, the Drug excretion [10] was 27.1 mg, the Drug excretion [11] was 33.2 mg and the Drug excretion [12] was 27.3 mg. The Drug excretion [13] was 10.4 mg, the Drug excretion [14] was 12.2 mg and the Drug excretion [15] was 101%. For the same compound, the Drug excretion [16] was 98.8%, the Drug excretion [17] was 3.6 %molar and the Drug metabolism [18] was 2.9 %molar. For the same compound, the Drug metabolism [19] was 27.1 %molar, the Drug metabolism [20] was 21.3 %molar and the Drug excretion [21] was 11.6 mg. The Drug excretion [22] was 9.44 mg, the Drug excretion [23] was 42.1 mg and the Drug excretion [24] was 49.9 mg. For the same compound, the Drug excretion [25] was 39.4 mg, the Drug excretion [26] was 28 mg and the Drug excretion [27] was 13 mg. For the same compound, the Drug excretion [28] was 45.9 mg, the Drug excretion [29] was 43.3 mg and the Drug excretion [30] was 43.4 mg. The Drug excretion [31] was 29.6 mg, the Drug excretion [32] was 28.7 mg and the Drug excretion [33] was 17.1 mg.

Source: ChEMBL document CHEMBL3785036 (J Pharm Sci, 1974)
